Where “and” joins values, the source holds several entries; their conditions need not be identical. Identical values can stand only once. Like-named read-outs stand apart in the source and are kept apart here.
Columns and labels:
[1] = system: multiple myeloma cell line U266B1; experiment: U266 Cell Viability Assay; assay type: cell-based, human; details: Homo sapiens, U-266, 48 h, U266B1 cells, Celltiter-Glo
Method: (§1) The human multiple myeloma cell line U266B1 was cultured in RPMI 1640 media supplemented with 10% fetal bovine serum, 2 mM Glutamine, and 1× Penicillin/Streptomycin. Cells were plated in 384-well tissue culture plates and treated with compound dilutions in DMSO/media. Plates were incubated at 37° C., 5% CO2 for 48 hours. After 48 hours, Celltiter-Glo® (Promega) was added to each well and luciferase signal was quantified using Tecan Infinite M1000 Pro for cell viability determination.
(§2) For chemical structures that include one or more stereoisomers, but are illustrated without indicating stereochemistry, the assay data refers to a mixture of stereoisomers.

[2] = system: PD1-ss+10aa/Gaussia Luciferase; experiment: Dox-Induced PD1-ss-Gluc Assay; assay type: cell-based; details: 24 hr Dox induction, 293FRT/TO cells, read-out: 24 hr Dox Inducible PD1ssGluc 293FRT/TO: Mean IC50
From the text: Flp-In 293 T-REx™ cells were transfected with pcDNA™5/FRT/TO plasmid inserted with cDNA encoding Gaussia Luciferase fused to the 3′ end of cDNA encoding PD1 signal sequence plus 10 amino acids (N-[…]-C) (SEQ ID NO: 1). Transfected cells were selected for resistance to the selectable markers Hygromycin and Blasticidin to create a stable cell line that contained the PD1-ss+10aa/Gaussia Luciferase cDNA insert whose expression was regulated under the T-REx™ system. The day before assay, cells were trypsinized and plated in 384-well tissue culture plates. The next day, compound dilutions in DMSO/media containing doxycycline were added to the wells and incubated at 37° C., 5% CO2.
as §2

[3] = Liver Microsome Stability Assay (mouse); details: mouse liver microsomes, with NADPH, 1.0 uM compound
Method: (§4) Stability of a compound was assessed in the presence of liver microsomes from various sources—mouse, rat, monkey and human liver microsomes. 1.0 uM compound, 0.4% DMSO in 0.1 M Potassium Phosphate with 1.0 mg/mL liver microsomes, were incubated at 37° C. with or without 1 mM NADPH. The samples were quenched at 0, and 30 minutes.

[4] = Liver Microsome Stability Assay (rat); details: rat liver microsomes, with NADPH, 1.0 uM compound
Method: as §4

[5] = system: multiple myeloma cell line NCI-H929; experiment: H929 Cell Viability Assay; assay type: cell-based, human; details: NCI-H929 cells, Celltiter-Glo
Method: as §1, with “NCI-H929” for “U266B1”, “cultured in Advanced RPMI 1640 media (Gibco®) supplemented with 6% fetal bovine serum, 2 mM Glutamine, and 1× Penicillin/Streptomycin. On the day of assay, cells were resuspended” for “cultured”, “Penicillin/Streptomycin and” for “Penicillin/Streptomycin. Cells were”
as §2

[6] = Liver Microsome Stability Assay (human); details: human liver microsomes, with NADPH, 1.0 uM compound
Method: as §4

[7] = Liver Microsome Stability Assay (monkey); details: monkey liver microsomes, with NADPH, 1.0 uM compound
Method: as §4

[8] = system: IL-2-FL/Gaussia Luciferase; experiment: Dox Induced IL2-FL-Gluc Assay; assay type: cell-based; details: for IC50: 24 hr Dox induction, 293FRT/TO cells, read-out: 24 hr Dox Inducible IL2FLGluc 293FRT/TO: Mean IC50; for 24 hr Dox Inducible IL2FLGluc 293FRT/TO: IL2/PD1: ratio of IL2FLGluc IC50 to PD1ssGluc IC50
From the text: (§3) Flp-In 293 T-REx™ cells were transfected with pcDNA™5/FRT/TO plasmid inserted with cDNA encoding Gaussia Luciferase fused to the 3′ end of cDNA encoding full length IL-2 (amino acids 1-153). Transfected cells were selected for resistance to the selectable markers Hygromycin and Blasticidin to create a stable cell line that contained the IL-2-FL/Gaussia Luciferase cDNA insert whose expression was regulated under the T-REx™ system. The day before assay, cells were trypsinized and plated in 384-well tissue culture plates. The next day, compound dilutions in DMSO/media containing doxycycline were added to the wells and incubated at 37° C., 5% CO2.
as §2

[9] = system: TNFα-FL/Gaussia Luciferase; experiment: Dox Induced TNFα-FL-Gluc Assay; assay type: cell-based
From the text: as §3, with “TNFα” for “IL-2”, “1-233).” for “1-153).”, “TNFα-FL/Gaussia” for “IL-2-FL/Gaussia”
as §2

[10] = '<=>' given where both are I.A.

SMILES	EC50 [1] [µM]	IC50 [2] [µM]	Liver Microsome Stability (Multiple Species): Mouse - % Remaining after 30 min w/NADPH [3]	Liver Microsome Stability (Multiple Species): Rat - % Remaining after 30 min w/NADPH [4]	EC50 ([5]; Homo sapiens, NCI-H929, 48 h) [µM]	Liver Microsome Stability (Multiple Species): Human - % Remaining after 30 min w/NADPH [6]	Liver Microsome Stability (Multiple Species): Monkey - % Remaining after 30 min w/NADPH [7] [%]	IC50 [8] [µM]	IC50 ([2]; mean)	IC50 ([8]; mean) [µM]	IC50 ([9]; 24 hr Dox induction, 293FRT/TO cells, mean, read-out: 24 hr Dox Inducible TNFaFLGluc 293FRT/TO: Mean IC50) [µM]	EC50 ([5]; 48 hr) [µM]	24 hr Dox Inducible IL2FLGluc 293FRT/TO: IL2/PD1 [8]	24 hr Dox Inducible IL2FLGluc 293FRT/TO: IL2/PD1 [8, 10]	24 hr Dox Inducible TNFaFLGluc 293FRT/TO: TNF/PD1 ([9]; ratio of TNFaFLGluc IC50 to PD1ssGluc IC50, '<=>' given where both are I.A.)
O=C(Nc1nc([C@H]2CCCN2c2ccc(-c3ncco3)cc2)cs1)c1cccn1Cc1ccncc1 [Compound A9, (R)-N-(4-(1-(4-(oxazol-2-yl)phenyl)pyrrolidin-2-yl)thiazol-2-yl)-1-(pyridin-4-ylmethyl)-1H-pyrrole-2-carboxamide]	> 25	0.00722	19.8%	0.8%	0.519	0.71%	0.23	0.0171					2.4		
O=C(O)c1ccc(N2CCC[C@@H]2c2csc(NC(=O)c3cccn3Cc3ccncc3)n2)cc1 [Compound A13]	> 25	20.7	6.8%	5.37%	> 25	1.91%	0.39	> 25					>1.2		
CC1=NC(C)(/C=C/c2csc(NC(=O)c3cccn3Cc3ccncc3)n2)CO1 (stereo not drawn) [Compound B16]	> 25	3.99	196%	137%	> 25		110	> 25					>6.3		
O=C(Nc1nc([C@H]2CCCN2c2ccccc2)cs1)c1cccn1CC1CCC(F)(F)CC1 [Compound C21, (R)-1-((4,4-difluorocyclohexyl)methyl)-N-(4-(1-phenylpyrrolidin-2-yl)thiazol-2-yl)-1H-pyrrole-2-carboxamide]	> 25		60.5%	12.2%	> 25	64%	49		> 25 µM	> 25					
O=C(Nc1nc([C@H]2CCCN2c2ccccc2)cs1)c1cccn1CCCc1c[nH]nn1 [Compound C27, (R)-1-(3-(1H-1,2,3-triazol-5-yl)propyl)-N-(4-(1-phenylpyrrolidin-2-yl)thiazol-2-yl)-1H-pyrrole-2-carboxamide]	> 25		4.86%	1.26%	23.9	3.25%	3.74		0.671 µM	2.63				3.9	
O=C(Nc1nc([C@H]2CCCN2c2ccccc2)cs1)c1cccn1Cc1cnn[nH]1 [Compound C29, (R)-1-((1H-1,2,3-triazol-5-yl)methyl)-N-(4-(1-phenylpyrrolidin-2-yl)thiazol-2-yl)-1H-pyrrole-2-carboxamide]	> 25		37.5%	17%	> 25	46.1%	41.9		4.89 µM	> 25				>5.1	
CO[C@@H](CC#N)Cn1cccc1C(=O)Nc1nc([C@H]2CCCN2c2ccccc2)cs1 [Compound C97, 1-((S)-3-cyano-2-methoxypropyl)-N-(4-((R)-1-phenylpyrrolidin-2-yl)thiazol-2-yl)-1H-pyrrole-2-carboxamide]	> 25		3.9% and 3.33%	5.97% and 7.43%	25	4.81% and 6.52%			3 µM and 4.65 µM		> 25	23.6		2.1 and > 3.6	> 8.34 and > 5.37

More lines, main results first:

EC50 [1] [µM]	IC50 [2] [µM]	Liver Microsome Stability (Multiple Species): Mouse - % Remaining after 30 min w/NADPH [3]	Liver Microsome Stability (Multiple Species): Rat - % Remaining after 30 min w/NADPH [4]	EC50 ([5]; Homo sapiens, NCI-H929, 48 h) [µM]	Liver Microsome Stability (Multiple Species): Human - % Remaining after 30 min w/NADPH [6]	Liver Microsome Stability (Multiple Species): Monkey - % Remaining after 30 min w/NADPH [7] [%]	IC50 [8] [µM]	IC50 ([2]; mean)	IC50 ([8]; mean) [µM]	IC50 ([9]; 24 hr Dox induction, 293FRT/TO cells, mean, read-out: 24 hr Dox Inducible TNFaFLGluc 293FRT/TO: Mean IC50) [µM]	EC50 ([5]; 48 hr) [µM]	SMILES	24 hr Dox Inducible IL2FLGluc 293FRT/TO: IL2/PD1 [8]	24 hr Dox Inducible IL2FLGluc 293FRT/TO: IL2/PD1 [8, 10]	24 hr Dox Inducible TNFaFLGluc 293FRT/TO: TNF/PD1 ([9]; ratio of TNFaFLGluc IC50 to PD1ssGluc IC50, '<=>' given where both are I.A.)
> 25				0.762				0.00953 µM	0.0229			O=C(Nc1nc([C@H]2CCCN2c2ccccc2)cs1)c1cccn1Cc1ccnc(F)c1 [Compound E26, (R)-1-((2-fluoropyridin-4-yl)methyl)-N-(4-(1-phenylpyrrolidin-2-yl)thiazol-2-yl)-1H-pyrrole-2-carboxamide]		2.4	
		1.05%	6.61%		0.37%	0.17						O=C(NC/C=C/c1csc(NC(=O)c2cccn2Cc2ccncc2)n1)c1ccccc1 [Compound E54, (E)-N-(4-(3-benzamidoprop-1-en-1-yl)thiazol-2-yl)-1-(pyridin-4-ylmethyl)-1H-pyrrole-2-carboxamide]			
> 25				21.5				0.0916 µM	4.36			CC(C)c1cccnc1/C=C/c1csc(NC(=O)c2cccn2Cc2ccncc2)n1 [Compound E56, (E)-N-(4-(2-(3-isopropylpyridin-2-yl)vinyl)thiazol-2-yl)-1-(pyridin-4-ylmethyl)-1H-pyrrole-2-carboxamide]		48	
9.51				6.9				0.00967 µM	2.16			CC(C)c1ccc(/C=C/c2csc(NC(=O)c3cccn3Cc3ccncc3)n2)nc1 [Compound E57, (E)-N-(4-(2-(5-isopropylpyridin-2-yl)vinyl)thiazol-2-yl)-1-(pyridin-4-ylmethyl)-1H-pyrrole-2-carboxamide]		220	
